This passage reports IC50 results from US6242455A, “Pyrimidin-2,4,6-trion derivatives, method for producing the same and medicinal products containing these compounds” (Roche Diagnostics GmbH, priority 1997, dated 2001).

The target in the test is T1, Angiotensin-converting enzyme from rabbit lung (Oryctolagus cuniculus, UniProt P12822).
T1 construct: purchased Fluka; host or cells: rabbit lung
T1 sequence (P12822 34-1310): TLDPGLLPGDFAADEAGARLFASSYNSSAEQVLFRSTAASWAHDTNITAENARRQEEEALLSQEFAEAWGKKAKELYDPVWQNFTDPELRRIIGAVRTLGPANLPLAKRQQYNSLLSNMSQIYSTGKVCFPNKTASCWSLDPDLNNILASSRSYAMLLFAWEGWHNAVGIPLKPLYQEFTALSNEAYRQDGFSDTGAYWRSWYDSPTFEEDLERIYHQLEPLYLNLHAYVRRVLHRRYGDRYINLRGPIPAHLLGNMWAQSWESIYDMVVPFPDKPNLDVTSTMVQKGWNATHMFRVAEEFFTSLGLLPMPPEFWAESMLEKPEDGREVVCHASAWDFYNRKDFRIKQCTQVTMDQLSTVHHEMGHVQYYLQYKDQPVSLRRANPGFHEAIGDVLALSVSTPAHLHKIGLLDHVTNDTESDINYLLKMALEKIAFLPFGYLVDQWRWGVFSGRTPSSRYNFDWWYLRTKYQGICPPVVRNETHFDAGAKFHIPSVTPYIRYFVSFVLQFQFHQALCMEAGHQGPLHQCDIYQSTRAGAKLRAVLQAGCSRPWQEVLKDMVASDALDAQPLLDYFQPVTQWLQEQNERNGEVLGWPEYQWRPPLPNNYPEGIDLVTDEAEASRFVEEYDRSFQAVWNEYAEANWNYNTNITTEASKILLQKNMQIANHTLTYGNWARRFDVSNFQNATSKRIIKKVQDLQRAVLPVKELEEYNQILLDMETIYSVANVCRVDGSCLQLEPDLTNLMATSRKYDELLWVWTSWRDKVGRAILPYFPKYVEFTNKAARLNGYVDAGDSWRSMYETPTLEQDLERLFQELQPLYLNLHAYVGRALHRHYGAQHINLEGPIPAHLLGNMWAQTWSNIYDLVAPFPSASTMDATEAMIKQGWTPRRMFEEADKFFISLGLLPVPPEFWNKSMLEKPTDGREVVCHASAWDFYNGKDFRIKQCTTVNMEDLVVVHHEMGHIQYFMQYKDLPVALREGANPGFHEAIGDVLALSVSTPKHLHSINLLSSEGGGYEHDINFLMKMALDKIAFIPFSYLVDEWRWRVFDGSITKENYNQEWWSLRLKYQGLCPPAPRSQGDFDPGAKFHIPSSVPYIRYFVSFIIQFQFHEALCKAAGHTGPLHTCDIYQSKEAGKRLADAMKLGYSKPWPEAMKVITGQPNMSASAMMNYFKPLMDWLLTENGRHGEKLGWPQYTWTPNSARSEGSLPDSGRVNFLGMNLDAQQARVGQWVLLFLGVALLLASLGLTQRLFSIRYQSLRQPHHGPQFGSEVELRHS
Briefly: ACE-fluorescence assay for the determination of the IC50 value. The class given is biochemical. To be noted: substrate Abz-Gly-Phe(NO2)-Pro 20 μM, pH 8.0, 36° C., inhibitor 0 to 100 μM. The source says: ACE-fluorescence assay for the determination of the IC50 value
Literature: Amos Carmel and Arieh Yaron, Eur. J. Biochem. […], 265-273 (1978). An Intramolecularly Quenched Fluorescent Tripeptide as a Fluorogenic Substrate of Angiotensin-I-Converting Enzyme and of Bacterial Dipeptidyl Carboxypeptidase.
Enzyme: Angiotensin-converting enzyme from rabbit lung (EC.3.4.15.1), Fluka (3.3 U/μg)
Substrate: Abz-Gly-Phe(NO2)-Pro, M-1100 Bachem
Assay buffer: 0.05 Tris-HCl
Excitation: 360 nm (excitation slit: 8 nm)
Emission: 410 nm (emission slit: 10 nm)
Substrate stock solution: […] in assay buffer
Enzyme stock solution: […] assay buffer
Inhibitor stock solution: 1 mM in DMSO diluted in assay buffer
Measuring cuvette: 50 μl substrate (yields 20 μM)
0 to 100 μl inhibitor stock solution […]
fill up remainder to 1 ml
Substrate, inhibitor and buffer are added together in a heated measuring cuvette and the enzyme reaction is started by addition of enzyme. The increase in fluorescence over time (200 s) is monitored in a time scan. The respective initial rate is determined from the increase.
The IC50 value can be determined as follows:
V0 =initial rate without inhibitor
[I]=inhibitor concentration

The molecule `CC(C)(C)C(C(=O)O)C(=O)NC1(c2ccccc2)C(=O)NC(=O)NC1=O` (stereo not shown) [Example 4, 3. 3-Dimethyl-2-(2,4,6-trioxo-5-phenyl-hexahydro-pyrimidin-5-ylcarbamoyl)-butyric acid] had a concentration for half-maximal inhibition (IC50) of 159 µM.
